In BindingDB's records for PubMed 11408610 (Virginia Commonwealth University, 2001):

Target: Cannabinoid receptor 1 (Rattus norvegicus, UniProt P20272)
Sequence (P20272 whole entry): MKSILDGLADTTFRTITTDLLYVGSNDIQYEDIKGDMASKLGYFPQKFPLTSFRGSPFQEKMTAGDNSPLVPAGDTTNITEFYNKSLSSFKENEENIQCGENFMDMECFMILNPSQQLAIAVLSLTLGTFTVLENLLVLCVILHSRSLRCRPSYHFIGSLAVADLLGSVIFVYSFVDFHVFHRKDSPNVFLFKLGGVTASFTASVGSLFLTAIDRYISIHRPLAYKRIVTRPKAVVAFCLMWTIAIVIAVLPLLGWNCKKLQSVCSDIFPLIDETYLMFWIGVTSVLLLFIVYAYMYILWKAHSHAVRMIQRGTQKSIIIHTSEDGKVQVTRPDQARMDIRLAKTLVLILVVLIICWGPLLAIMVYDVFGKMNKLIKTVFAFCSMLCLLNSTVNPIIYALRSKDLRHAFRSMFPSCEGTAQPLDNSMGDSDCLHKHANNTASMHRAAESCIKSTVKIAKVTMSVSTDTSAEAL

SMILES | Ki
CCCCCn1ccc(C(=O)c2cccc3ccccc23)c1 | 87 nM
CCCCn1cc(C(=O)c2cccc3ccccc23)c2ccccc21 [1-Naphthyl(1-butyl-1H-indole-3-yl)methanone] | 8.9 nM
CCCCC/C=C/C/C=C/C/C=C/C/C=C/CCC(C)(C)C(=O)NCCO [2-dimethyl-anandamide] | 47 nM
CCCCCc1cc(O)c2c(c1)OC(C)(C)c1ccc(C)cc1-2 [6,6,9-Trimethyl-3-pentyl-6H-benzo[c]chromen-1-ol(Cannabinol)] | 308 nM
CCCCC/C=C/C/C=C/C/C=C/C/C=C/CCC(C)C(=O)NCCO (configuration not stated) [(5Z,8Z,11Z,14Z)-2-Methyl-N-(2-hydroxyethyl)-5,8,11,14-icosatetrenamide] | 53 nM
CCCCC/C=C/C/C=C/C/C=C/C/C=C/CCC(C)C(=O)NCCF (configuration not stated) [(5Z,8Z,11Z,14Z)-N-(2-Fluoroethyl)-2-methyl-5,8,11,14-icosatetrenamide] | 5.7 nM
CCCCCCC(C)(C)c1cc(O)c2c(c1)OC(C)(C)[C@@H]1CC=C(CO)CC21 (stereo partly drawn) [(R)-3-(1,1-Dimethyl-heptyl)-9-hydroxymethyl-6,6-dimethyl-6a,7,10,10a-tetrahydro-6H-benzo[c]chromen-1-ol] | 0.73 nM
CCCCCCn1ccc(C(=O)c2cccc3ccccc23)c1 [CAS_162934-74-9] | 399 nM
CCCn1ccc(C(=O)c2cccc3ccccc23)c1 [JWH-032] | > 10000 nM
CCCCCCCn1ccc(C(=O)c2cccc3ccccc23)c1 [JWH-036] | 309 nM
Cn1ccc(C(=O)c2cccc3ccccc23)c1 [JWH-044] | > 10000 nM
CCn1ccc(C(=O)c2cccc3ccccc23)c1 [JWH-045] | > 10000 nM
